Laboratory results reported in ChEMBL document CHEMBL3091293, “The synthesis and biodistribution of [(11)C]metformin as a PET probe to study hepatobiliary transport mediated by the multi-drug and toxin extrusion transporter 1 (MATE1) in vivo” (Bioorg Med Chem, 2013).

What was measured:
Type in all cases: ADME, organism-based
[1] = test system: Kidney; assay: Drug uptake in kidney of ddY mouse at 127 +/- 35 MBq/kg, iv measured up to 4.5 mins by microPET image analysis; details: in vivo, 0.075 h
[2] = test system: Mus musculus; assay: Biodistribution in remaining body parts of ddY mouse at 5.6 +/- 2.1 MBq, iv measured per gram of tissue at 90 mins by gamma-ray counting analysis; details: in vivo, 1.5 h
[3] = test system: Mus musculus; assay: Biodistribution in stomach wall of ddY mouse at 5.6 +/- 2.1 MBq, iv measured per gram of tissue at 90 mins by gamma-ray counting analysis; details: in vivo, 1.5 h
[4] = test system: Pancreas; assay: Biodistribution in pancreas of ddY mouse at 5.6 +/- 2.1 MBq, iv measured per gram of tissue at 60 mins by gamma-ray counting analysis; details: in vivo, 1 h
[5] = test system: Pancreas; assay: Biodistribution in pancreas of ddY mouse at 5.6 +/- 2.1 MBq, iv measured per gram of tissue at 35 mins by gamma-ray counting analysis; details: in vivo
[6] = test system: Mus musculus; assay: Biodistribution in urinary bladder/urine of ddY mouse at 5.6 +/- 2.1 MBq, iv measured per gram of tissue at 90 mins by gamma-ray counting analysis; details: in vivo, 1.5 h
[7] = test system: Mus musculus; assay: Biodistribution in small intestine wall of ddY mouse at 5.6 +/- 2.1 MBq, iv measured per gram of tissue at 45 mins by gamma-ray counting analysis; details: in vivo, 0.75 h
[8] = test system: Mus musculus; assay: Biodistribution in stomach wall of ddY mouse at 5.6 +/- 2.1 MBq, iv measured per gram of tissue at 60 mins by gamma-ray counting analysis; details: in vivo, 1 h
[9] = test system: Spleen; assay: Biodistribution in spleen of ddY mouse at 5.6 +/- 2.1 MBq, iv measured per gram of tissue at 60 mins by gamma-ray counting analysis; details: in vivo, 1 h
[10] = test system: Mus musculus; assay: Biodistribution in stomach wall of ddY mouse at 5.6 +/- 2.1 MBq, iv measured per gram of tissue at 35 mins by gamma-ray counting analysis; details: in vivo
[11] = test system: Kidney; assay: Biodistribution in kidney of ddY mouse at 14.6 +/- 2.1 MBq, iv measured per gram of tissue at 14 mins by PET image analysis; details: in vivo
[12] = test system: Mus musculus; assay: Biodistribution in heart wall of ddY mouse at 5.6 +/- 2.1 MBq, iv measured per gram of tissue at 35 mins by gamma-ray counting analysis; details: in vivo
[13] = test system: Thyroid gland; assay: Biodistribution in thyroid of ddY mouse at 5.6 +/- 2.1 MBq, iv measured per gram of tissue at 35 mins by gamma-ray counting analysis; details: in vivo
[14] = test system: Liver; assay: Metabolic stability in liver of mouse at 5 +/- 2.3 MBq/kg, iv measured until 30 to 60 mins by HPLC analysis in presence of MATE1 inhibitor pyrimethamine; details: in vivo
[15] = test system: Kidney; assay: Biodistribution in kidney of ddY mouse at 5.6 +/- 2.1 MBq, iv measured per gram of tissue at 35 mins by gamma-ray counting analysis; details: in vivo
[16] = test system: Spleen; assay: Biodistribution in spleen of ddY mouse at 5.6 +/- 2.1 MBq, iv measured per gram of tissue at 45 mins by gamma-ray counting analysis; details: in vivo, 0.75 h
[17] = test system: Mus musculus; assay: Biodistribution in large intestine wall of ddY mouse at 5.6 +/- 2.1 MBq, iv measured per gram of tissue at 45 mins by gamma-ray counting analysis; details: in vivo, 0.75 h
[18] = test system: Mus musculus; assay: Biodistribution in small intestine wall of ddY mouse at 5.6 +/- 2.1 MBq, iv measured per gram of tissue at 15 mins by gamma-ray counting analysis; details: in vivo, 0.25 h
[19] = test system: Pancreas; assay: Biodistribution in pancreas of ddY mouse at 5.6 +/- 2.1 MBq, iv measured per gram of tissue at 45 mins by gamma-ray counting analysis; details: in vivo, 0.75 h
[20] = test system: Liver; assay: Biodistribution in liver of ddY mouse at 5.6 +/- 2.1 MBq, iv measured per gram of tissue at 90 mins by gamma-ray counting analysis; details: in vivo, 1.5 h
[21] = test system: Kidney; assay: Biodistribution in kidney of ddY mouse at 14.6 +/- 2.1 MBq, iv measured per gram of tissue at 27.5 mins by PET image analysis; details: in vivo
[22] = test system: Kidney; assay: Biodistribution in kidney of ddY mouse at 5.6 +/- 2.1 MBq, iv measured per gram of tissue at 90 mins by gamma-ray counting analysis; details: in vivo, 1.5 h
[23] = test system: Mus musculus; assay: Biodistribution in stomach wall of ddY mouse at 5.6 +/- 2.1 MBq, iv measured per gram of tissue at 30 mins by gamma-ray counting analysis; details: in vivo, 0.5 h
[24] = test system: Mus musculus; assay: Biodistribution in remaining body parts of ddY mouse at 14.6 +/- 2.1 MBq, iv measured per gram of tissue at 27.5 mins by PET image analysis; details: in vivo
[25] = test system: Thyroid gland; assay: Biodistribution in thyroid of ddY mouse at 5.6 +/- 2.1 MBq, iv measured per gram of tissue at 15 mins by gamma-ray counting analysis; details: in vivo, 0.25 h
[26] = test system: Mus musculus; assay: Biodistribution in urinary bladder of ddY mouse at 14.6 +/- 2.1 MBq, iv measured per gram of tissue at 5 mins by PET image analysis; details: in vivo
[27] = test system: Mus musculus; assay: Biodistribution in large intestine wall of ddY mouse at 5.6 +/- 2.1 MBq, iv measured per gram of tissue at 35 mins by gamma-ray counting analysis; details: in vivo
[28] = test system: Lung; assay: Biodistribution in lung of ddY mouse at 5.6 +/- 2.1 MBq, iv measured per gram of tissue at 90 mins by gamma-ray counting analysis; details: in vivo, 1.5 h
[29] = test system: Kidney; assay: Biodistribution in kidney of ddY mouse at 5.6 +/- 2.1 MBq, iv measured per gram of tissue at 15 mins by gamma-ray counting analysis; details: in vivo, 0.25 h
[30] = test system: Mus musculus; assay: Biodistribution in small intestine wall of ddY mouse at 5.6 +/- 2.1 MBq, iv measured per gram of tissue at 60 mins by gamma-ray counting analysis; details: in vivo, 1 h
[31] = test system: Kidney; assay: Biodistribution in kidney of ddY mouse at 5.6 +/- 2.1 MBq, iv measured per gram of tissue at 60 mins by gamma-ray counting analysis; details: in vivo, 1 h
[32] = test system: Mus musculus; assay: Biodistribution in urinary bladder of ddY mouse at 14.6 +/- 2.1 MBq, iv measured per gram of tissue at 14 mins by PET image analysis; details: in vivo
[33] = test system: Mus musculus; assay: Biodistribution in stomach wall of ddY mouse at 5.6 +/- 2.1 MBq, iv measured per gram of tissue at 45 mins by gamma-ray counting analysis; details: in vivo, 0.75 h
[34] = test system: Mus musculus; assay: Biodistribution in remaining body parts of ddY mouse at 5.6 +/- 2.1 MBq, iv measured per gram of tissue at 15 mins by gamma-ray counting analysis; details: in vivo, 0.25 h
[35] = test system: Thyroid gland; assay: Biodistribution in thyroid of ddY mouse at 5.6 +/- 2.1 MBq, iv measured per gram of tissue at 60 mins by gamma-ray counting analysis; details: in vivo, 1 h
[36] = test system: Lung; assay: Biodistribution in lung of ddY mouse at 5.6 +/- 2.1 MBq, iv measured per gram of tissue at 30 mins by gamma-ray counting analysis; details: in vivo, 0.5 h
[37] = test system: Thyroid gland; assay: Biodistribution in thyroid of ddY mouse at 5.6 +/- 2.1 MBq, iv measured per gram of tissue at 30 mins by gamma-ray counting analysis; details: in vivo, 0.5 h
[38] = test system: Mus musculus; assay: Biodistribution in large intestine wall of ddY mouse at 5.6 +/- 2.1 MBq, iv measured per gram of tissue at 30 mins by gamma-ray counting analysis; details: in vivo, 0.5 h

Drug uptake [1]: Active
Drug uptake [2]: 36.827 %ID
Drug uptake [3]: 0.14 %ID
Drug uptake [4]: 0.281 %ID
Drug uptake [5]: 0.196 %ID
Drug uptake [6]: 59.056 %ID
Drug uptake [7]: 2.128 %ID
Drug uptake [8]: 0.169 %ID
Drug uptake [9]: 0.139 %ID
Drug uptake [10]: 0.091 %ID
Drug uptake [11]: 4.906 %ID
Drug uptake [12]: 0.049 %ID
Drug uptake [13]: 0.003 %ID
Stability [14]: Stable
Drug uptake [15]: 0.274 %ID
Drug uptake [16]: 0.123 %ID
Drug uptake [17]: 0.208 %ID
Drug uptake [18]: 3.409 %ID
Drug uptake [19]: 0.117 %ID
Drug uptake [20]: 1.288 %ID
Drug uptake [21]: 4.394 %ID
Drug uptake [22]: 0.236 %ID
Drug uptake [23]: 0.173 %ID
Drug uptake [24]: 28.532 %ID
Drug uptake [25]: 0.008 %ID
Drug uptake [26]: 37.19 %ID
Drug uptake [27]: 0.342 %ID
Drug uptake [28]: 0.128 %ID
Drug uptake [29]: 1.181 %ID
Drug uptake [30]: 2.543 %ID
Drug uptake [31]: 1.068 %ID
Drug uptake [32]: 56.419 %ID
Drug uptake [33]: 0.08 %ID
Drug uptake [34]: 54.581 %ID
Drug uptake [35]: 0.005 %ID
Drug uptake [36]: 0.218 %ID
Drug uptake [37]: 0.009 %ID
Drug uptake [38]: 0.352 %ID
SMILES: CN([11CH3])C(=N)NC(=N)N
